Data taken from US20190211397A1, “INHIBITORS OF GPR132 FOR USE IN PREVENTING AND/OR TREATING CHEMOTHERAPY-INDUCED NEUROPATHIC PAIN” (Fraunhofer-Gesellschaft zur Foerderung der angewandten …, priority 2016, published 2019).

Key:
G2A receptor (GPR132) = target: T1, G2A receptor (GPR132) (Homo sapiens, UniProt Q9UNW8); test: Calcium flux in COS-1 cells cotransfected with aequorin and G2A; format: cell-based; design: expressed in transfected cells; conditions: COS-1 cells transfected with GPR132 and aequorin, 10 nM-10 μM
T1 sequence (Q9UNW8 1-380): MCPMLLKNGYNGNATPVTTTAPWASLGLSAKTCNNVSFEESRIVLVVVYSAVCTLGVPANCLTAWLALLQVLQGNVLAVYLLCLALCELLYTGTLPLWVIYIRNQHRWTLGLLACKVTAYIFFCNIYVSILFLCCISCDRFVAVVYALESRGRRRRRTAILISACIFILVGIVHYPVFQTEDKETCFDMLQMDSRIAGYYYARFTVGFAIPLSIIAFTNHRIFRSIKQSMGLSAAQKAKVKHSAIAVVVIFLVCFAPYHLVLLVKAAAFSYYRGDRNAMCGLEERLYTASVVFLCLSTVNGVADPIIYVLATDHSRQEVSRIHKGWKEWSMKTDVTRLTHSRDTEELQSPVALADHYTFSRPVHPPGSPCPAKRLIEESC
Protocol: For studies of heterologously expressed G2A receptor, COS-1 cells were seeded in white walls-clear bottom 96-well plates and transfected with a plasmid encoding a calcium-sensitive bioluminescent fusion protein between aequorin and GFP (Baubet et al., 2000) together with plasmid containing cDNA for G2A or control DNA (empty vector, mock) at a concentration of 50 ng/well by using FuGENE 6 reagent (Promega) following manufacturer's instructions. Forty eight hours later, cells were loaded with 5 μM coelenterazine h (Invitrogen) in HBSS containing 1.8 mM CaCl2 and 10 mM glucose for 2 h at 37° C. Measurements were performed by using a luminometric plate reader (Flexstation 3). The area under each calcium transient was calculated by using SoftMaxPro software and expressed as area under the curve (AUC).

TRPM8 = target: T2, TRPM8 (Mus musculus, UniProt Q8R4D5); test: Calcium imaging of DRG neurons: TRPM8 sensitization (menthol); format: cell-based, mice; conditions: activated with menthol 100 μM
T2 construct: endogenous in cells; host or cells: primary murine dorsal root ganglion (DRG) neurons
Protocol: DRG primary cultures were prepared as described previously (Brenneis et al., 2011 b). Briefly, twenty to thirty murine dorsal roots ganglia (DRGs) were dissected from spinal segments and transferred directly into ice-cold Hanks' balanced salt solution with CaCI2 and MgCI2 (lnvitrogen, Carlsbad, Calif., USA). The DRGs were than incubated with Neurobasal Medium (lnvitrogen, Carlsbad, Calif., USA) containing 500 U/ml collagenase (Sigma, Deisenhofen, Germany) and 2.5 U/ml dispase II (Roche, Mannheim, Germany) for 75 mins at 37° C. After removal of the collagenase/dispase-solution cells were washed three times with medium containing 10% FCS, penicillin/streptomycin/gentamycin (lnvitrogen, Carlsbad, Calif., USA) and incubated in 0.05% trypsin for 10 min at 37° C. After two washing steps, the cells were mechanically dissociated with a 1 ml pipette and plated on Poly-L-lysine (Sigma) coated coverslips. […]
Calcium-imaging experiments were performed with a Leica calcium-imaging setup, consisting of a Leica DMI 4000 b inverted microscope equipped with a DFC360 FX (CCD) camera, Fura-2 filters, and an N-Plan 10×/0.25 Ph1 objective (all from Leica), was used. […] For each experiment, an area with large cell numbers 24 h after preparation (see DRG primary cultures) was chosen and 40-110 cells were monitored simultaneously. […]

TRPV1 = test: Whole-cell voltage clamp of DRG neurons, capsaicin-induced inward current; format: cell-based, mice; conditions: DRG neurons pre-treated with 9-HODE (200 nM, 3 min), capsaicin 1 μM
Protocol: All recordings were carried out at room temperature within 48 hour of plating DRG neurons. Whole-cell voltage clamp recordings were made with an Axopatch 200A amplifier (Molecular Devices) and patch pipettes with resistances of 2-3 MΩ. Pipette solution was 5 mM NaCl, 140 mM KCl, 0.5 mM CaCl2, 2 mM MgCl2, 5 mM EGTA, 10 mM HEPES, and 3 mM Na2ATP, pH 7.2, adjusted with NaOH. The external solution was 140 mM NaCl, 5 mM KCl, 2 mM CaCl2, 2 mM MgCl2, 10 mM HEPES, and 10 mM D-glucose, pH 7.4, adjusted with NaOH (Sigma). Command protocols were generated and data was digitized with a Digidata 1440A A/D interface with pCLAMP10 software. We used gravity perfusion system connected with perfusion pencil (AutoMate Scientific) to externally apply 9-HODE or capsaicin to the cells.

T2 sequence (Q8R4D5 whole entry): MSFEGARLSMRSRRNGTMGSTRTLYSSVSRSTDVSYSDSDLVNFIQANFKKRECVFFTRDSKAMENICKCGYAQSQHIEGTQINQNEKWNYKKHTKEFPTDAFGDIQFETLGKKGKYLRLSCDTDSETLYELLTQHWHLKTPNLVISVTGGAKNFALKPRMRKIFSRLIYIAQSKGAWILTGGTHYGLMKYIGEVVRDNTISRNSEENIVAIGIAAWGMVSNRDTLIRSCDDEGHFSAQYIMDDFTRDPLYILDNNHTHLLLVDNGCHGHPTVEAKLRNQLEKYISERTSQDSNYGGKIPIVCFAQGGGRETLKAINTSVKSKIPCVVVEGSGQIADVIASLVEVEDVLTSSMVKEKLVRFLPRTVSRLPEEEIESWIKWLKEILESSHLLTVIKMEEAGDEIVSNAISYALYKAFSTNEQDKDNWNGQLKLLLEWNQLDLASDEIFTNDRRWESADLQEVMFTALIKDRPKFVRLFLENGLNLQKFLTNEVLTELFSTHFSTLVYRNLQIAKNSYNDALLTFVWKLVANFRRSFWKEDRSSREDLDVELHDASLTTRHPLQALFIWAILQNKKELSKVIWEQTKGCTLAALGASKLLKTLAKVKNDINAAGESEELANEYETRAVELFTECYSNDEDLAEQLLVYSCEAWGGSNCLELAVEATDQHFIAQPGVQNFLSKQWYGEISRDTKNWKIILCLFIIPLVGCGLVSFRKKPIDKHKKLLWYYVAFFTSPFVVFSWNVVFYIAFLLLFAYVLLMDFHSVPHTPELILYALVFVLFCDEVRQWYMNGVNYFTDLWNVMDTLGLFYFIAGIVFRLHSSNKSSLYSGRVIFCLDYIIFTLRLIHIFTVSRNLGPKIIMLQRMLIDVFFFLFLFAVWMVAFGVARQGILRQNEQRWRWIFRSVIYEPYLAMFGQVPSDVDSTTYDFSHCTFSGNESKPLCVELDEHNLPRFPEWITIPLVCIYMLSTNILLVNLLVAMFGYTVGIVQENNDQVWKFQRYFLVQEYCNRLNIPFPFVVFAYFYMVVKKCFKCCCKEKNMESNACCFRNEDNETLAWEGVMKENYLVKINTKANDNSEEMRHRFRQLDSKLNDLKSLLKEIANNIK

With `CCCCC/C=C\C=C\C(O)CCCCCCCC(=O)O` (stereo not drawn) [9-HODE, 9-hydroxy-10E,12Z-octadecadienoic acid] the “calcium release (bioluminescence of aequorin)” value (G2A receptor (GPR132)) was “caused calcium release in a concentration-dependent manner”, the “sensitizing effects for TRPM8” value (TRPM8) was “no sensitizing effects” and the capsaicin-induced inward current (TRPV1) was “significantly increased”.
